Experimental data: US20200000916A1, “REGIONALLY ACTIVATED DRUG DELIVERY NANOPARTICLES” (The Regents of the University of California, priority 2013, published 2020)
“Also recorded” adds a separate entry of the source.

Tested on: PTK2 kidney epithelial cells
Test: Cellular localization by live fluorescence microscopy
Format: cell-based
Settings: 2 μM, 2 hours incubation, before/without 365 nm light exposure; hydrochloride
Description: The intracellular localization of the DOX-PCB nanoparticles and pure DOX was studied using the PTK2 epithelial cell line. These cells were used because they are susceptible to DOX and remain flat during mitosis, allowing for enhanced visualization of the nuclear region. This visualization capability was important since one of the main therapeutic modes of action for DOX is through DNA intercalation. The DOX-PCB nanoparticles and pure DOX are both naturally fluorescent which allowed them to be easily tracked through the cell. The PTK2 cells were plated in glass bottom petri dishes (MatTek Corporation, Ashland, Mass.) and were incubated in advanced MEM Media from Gibco (Invitrogen, Grand Island, N.Y.) with 2% fetal bovine serum, nonessential amino acids, 110 mg/L sodium pyruvate, and without penicillin-streptomycin or L-Glutamine.
A 1 ml media solution of DOX-PCB nanoparticles was prepared by first adding 10×DPBS to a 4.1 μM solution of DOX-PCB nanoparticles in water to achieve a 1×DPBS concentration, and then adding the resulting solution to a phenol-red free formulation of the advanced MEM media described above to achieve a final DOX-PCB content of 2 μM. This spiked media sample was then added to the glass bottom petri dish along with PTK2 cells seeded which had the previous incubation media removed. […]

With `COc1cccc2c1C(=O)c1c(O)c3c(c(O)c1C2=O)C[C@@](O)(C(=O)CO)C[C@@H]3O[C@H]1C[C@H](N)[C@H](O)[C@H](C)O1.Cl` [DOX, Doxorubicin hydrochloride] the intracellular localization was “strongly associate with the cell nuclei; also recorded: associate strongly with the cell nuclei”.
